Source: patent US11098077B2, “Locked nucleic acid cyclic dinucleotide compounds and uses thereof” (CHINOOK THERAPEUTICS, INC., priority 2016, dated 2021)

Legend:
[1] = molecular target: T1, hSTING WT (Homo sapiens, UniProt Q86WV6, H232R); experiment: Differential scanning fluorometry (DSF) binding to purified STING AA140-379, wild type; details: for hSTING Tm Shift WT: DSF, ligand 1 mM, 1 mg/ml STING AA140-379; for Tm shift compared with natural ligand 2′3′-(G)(A) / Tm shift compared with reference compound 2′3′-RR-(A)(A): for all three alleles (WT, HAQ, REF)
T1 construct: DNA encoding amino acids 140-379 (amino acid numbering corresponding to Swiss Prot Q86WV6); 6xHIS (N, cleaved yes); SUMO (N, cleaved yes); made in house; host or cells: Rosetta2 (DE3) E. coli
Method: (§1) Cells were grown in lysogeny broth at 37° C. until a […] absorbance of 0.6 was reached. […] Cell pellets were re-suspended on ice in a buffer containing 50 mM Tris hydrochloride (Tris-HCl) pH 7.5, 500 mM sodium chloride (NaCl), 20 mM imidazole, 10% glycerol, 1 mM tris(2-carboxyethyl)phosphine hydrochloride (TCEP) and protease inhibitor tablet (Pierce) (Buffer A). Cells were lysed using an S-450D sonifier (Emmerson industrial) on ice. […] Protein was aliquoted, flash frozen in liquid nitrogen and stored at −80° C. until use.
(§2) The protein is heated in the presence of a dye that binds to and fluoresces in hydrophobic environments. The protein is thermally denatured by heating resulting in increased dye binding to the unfolded protein and fluorescence. The temperature midpoint (Tm) of a proteins denaturation is established by calculating the half maximal value of the denaturation curve. The temperature midpoint of the protein in the presence of a ligand is directly related to the affinity of the ligand for the protein and therefore its ability to stabilize the protein at higher temperatures.
(§3) Each of wild type hSTING, HAQ allele hSTING and REF allele hSTING were used with each of the reference compounds and compounds of the invention as listed in Table 4. Samples were placed in hard shell PCR plate (Bio-Rad). The fluorescence as a function of temperature was recorded in a CFX 96 real time PCR machine (Bio-Rad) reading on the HEX channel, excitation 450-490, emission 560-580 nm. The temperature gradient was from 15-80° C. ramping 0.5° C. per 15 seconds and recording every 0.5° C. After subtraction of the background signal from a sample lacking protein and ligand. The midpoint temperature (Tm) was calculated by fitting the curves of the fluorescence as a function of temperature to a Boltzmann sigmoidal function (Graph Pad Prism).

[2] = molecular target: T2, hSTING HAQ allele (Homo sapiens, UniProt Q86WV6, G230A/H232R/R293Q); experiment: Differential scanning fluorometry (DSF) binding to purified STING AA140-379, HAQ allele; details: ligand 1 mM, 1 mg/ml STING AA140-379
T2 construct: DNA encoding amino acids 140-379 (amino acid numbering corresponding to Swiss Prot Q86WV6); 6xHIS (N, cleaved yes); SUMO (N, cleaved yes); made in house; host or cells: Rosetta2 (DE3) E. coli
Method: as §1, §2, §3

[3] = molecular target: T3, hSTING REF allele (Homo sapiens, UniProt Q86WV6); experiment: Differential scanning fluorometry (DSF) binding to purified STING AA140-379, REF allele; details: for hSTING Tm Shift REF: DSF, ligand 1 mM, 1 mg/ml STING AA140-379; for Tm shift compared with 2′3′-RR-(A)(A) and 2′3′-(G)(A): for the REF allele
T3 construct: DNA encoding amino acids 140-379 (amino acid numbering corresponding to Swiss Prot Q86WV6); 6xHIS (N, cleaved yes); SUMO (N, cleaved yes); made in house; host or cells: Rosetta2 (DE3) E. coli
Method: as §1, §2, §3

[4] = molecular target: T4, hSTING HAQ allele in THP1-Dual cells (Homo sapiens, UniProt Q86WV6, G230A/H232R/R293Q/R71H); experiment: THP1-Dual IRF-3 inducible secreted luciferase reporter assay (type I interferon activation), without digitonin; assay type: cell-based
T4 construct: a human monocyte cell line containing the hSTING HAQ allele; host or cells: THP1-Dual cells
Method: After 30 minutes, cells were washed and fresh RPMI media containing 10% FBS was added, and cells were incubated at 37° C. with 5% CO2 Cell culture supernatants from each sample were collected after overnight incubation, and 10 μL of the cell culture supernatants was added to 50 μL QUANTI-Luc reagent (Invivogen). Type I interferon activation was determined by measuring secreted luciferase levels on a SpectraMax M3 spectrophotometer (Molecular Devices).

[5] = test system: B16.SIY melanoma tumor cells; experiment: B16.SIY melanoma tumor model, intra-tumoral injection (Example 13); assay type: in vivo, C57BL/6 mice
Method: (§4) Tumors were measured twice weekly.

[6] = test system: SIY-specific T cells in splenocytes; experiment: IFNγ ELISPOT of splenocytes stimulated with SIY peptide; assay type: in vivo, C57BL/6 mice; details: day 7 post IT injection
[7] = test system: serum TNF-α, IFN-γ, IL-6, MCP-1; experiment: Systemic serum pro-inflammatory cytokines by Mouse Inflammation Cytometric Bead Array; details: from serum cytokines six hours post-IT injection
Method: To assess the ability of the LNA-CDN molecules to promote anti-tumor immunity in aggressive murine tumor models, 6-8 week old female C57BL/6 mice (8 mice per group) were implanted with B16.SIY melanoma tumor cells (1×10^6 cells in 100 μL PBS). […] Treatments began when tumors reached a volume of approximately 100 mm^3, on day 9 post tumor implantation. The compounds were administered by a single subcutaneous injection into the center of the tumor (IT) using a 27 gauge needle. Tumors were measured twice weekly.

[8] = test system: B16.SIY melanoma cells; experiment: B16.SIY melanoma tumor model in WT mice (Example 14); assay type: in vivo, C57BL/6 (WT) mice; details: single IT injection, 100 μg
Method: as §4

[9] = test system: B16.SIY melanoma cells; experiment: B16.SIY melanoma tumor model in STING-deficient Goldenticket mice (Example 14); assay type: in vivo; details: STING-deficient GT mice; single IT injection, 100 μg
Method: as §4

T4 sequence (Q86WV6 whole entry R71H/G230A/H232R/R293Q): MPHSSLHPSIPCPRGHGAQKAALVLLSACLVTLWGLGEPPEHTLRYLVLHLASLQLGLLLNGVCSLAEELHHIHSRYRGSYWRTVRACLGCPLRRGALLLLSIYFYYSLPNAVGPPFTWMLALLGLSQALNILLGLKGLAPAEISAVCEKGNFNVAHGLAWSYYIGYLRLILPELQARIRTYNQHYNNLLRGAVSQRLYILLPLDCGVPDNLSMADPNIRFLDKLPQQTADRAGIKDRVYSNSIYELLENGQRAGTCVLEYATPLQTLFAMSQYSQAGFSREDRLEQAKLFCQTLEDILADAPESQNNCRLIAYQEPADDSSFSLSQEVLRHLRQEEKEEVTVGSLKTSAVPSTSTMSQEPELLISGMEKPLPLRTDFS
T2 sequence (Q86WV6 140-379 G230A/H232R/R293Q limits assumed): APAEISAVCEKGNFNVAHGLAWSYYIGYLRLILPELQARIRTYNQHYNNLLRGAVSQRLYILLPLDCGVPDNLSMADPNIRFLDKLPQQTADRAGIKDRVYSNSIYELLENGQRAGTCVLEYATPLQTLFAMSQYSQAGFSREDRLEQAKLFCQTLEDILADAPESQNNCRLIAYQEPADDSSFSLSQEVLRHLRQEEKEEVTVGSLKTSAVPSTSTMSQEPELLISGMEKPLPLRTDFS
T3 sequence (Q86WV6 140-379): as the sequence (Q86WV6 140-379 G230A/H232R/R293Q limits assumed) above, with A91G, R93H, Q154R counted along it
T1 sequence (Q86WV6 140-379 H232R limits assumed): as the sequence (Q86WV6 140-379 G230A/H232R/R293Q limits assumed) above, with A91G, Q154R counted along it

| SMILES | hSTING Tm Shift WT [1] [°C] | Tm shift compared with natural ligand 2′3′-(G)(A) [1] | Tm shift compared with reference compound 2′3′-RR-(A)(A) [1] | hSTING Tm Shift HAQ [2] [°C] | hSTING Tm Shift REF [3] [°C] | Tm shift compared with 2′3′-RR-(A)(A) and 2′3′-(G)(A) [3] | EC50 [4] [µM] | tumor efficacy compared to reference compound 2′3′-RR-(A)(A) ([5]; single IT injection, 1 μg dose) | tumor regression ([5]; single IT injection, 100 μg dose) | tumor inhibition (tumor volume) compared to HBSS ([5]; single IT injection, 0.1, 1, 10 and 100 μg) | IFNγ ELISPOT T cell responses compared to reference compound 2′3′-RR-(A)(A) ([6]; 1 μg dose) | T cell production of IFNγ in response to SIY peptide stimulation, compared to HBSS ([6]; 0.1, 1 and 10 μg doses) | safety profile compared to reference compound 2′3′-RR-(A)(A) [7] | tumor rejection (tumor volume) compared to HBSS [8] | anti-tumor effect (tumor volume) [9] |
| --- | --- | --- | --- | --- | --- | --- | --- | --- | --- | --- | --- | --- | --- | --- | --- |
| Nc1ncnc2c1ncn2[C@@H]1O[C@@]23CO[C@@H]1[C@@H]2O[P@](=O)(S)OC[C@@]12CO[C@@H]([C@H](n4cnc5c(N)ncnc54)O1)[C@@H]2O[P@](=O)(S)OC3 [Compound 5a] | 16.8 | greater Tm shift than the natural ligand 2′3′-(G)(A) | comparable to or greater than that of the reference compound 2′3′-RR-(A)(A) | 27.6 | 10.6 | greater Tm shift than both 2′3′-RR-(A)(A) and 2′3′-(G)(A) | 41.6 | comparable tumor efficacy as compared to the reference compound 2′3′-RR-(A)(A) | complete tumor regression | potent tumor inhibition as compared to HBSS, in a dose-dependent manner | comparable T cell responses | significantly higher T cell production of IFNγ | comparable safety profile |  |  |
| Nc1nc2c(ncn2[C@@H]2O[C@@H]3CO[P@@](=O)(S)O[C@H]4[C@H]5OC[C@]4(CO[P@](=O)(S)O[C@@H]2[C@@H]3F)O[C@H]5n2cnc3c(N)ncnc32)c(=O)[nH]1 [Compound 15c, 2′3′-SR-(3′F-G)(2′O,4′C-LNA-A)] |  |  |  |  |  |  |  |  |  |  |  |  |  | complete tumor rejection | no anti-tumor effect |
| Nc1nc2c(ncn2[C@@H]2O[C@@]34CO[C@@H]2[C@@H]3O[P@](=O)(S)OC[C@H]2O[C@@H](n3cnc5c(N)ncnc53)[C@H](O)[C@@H]2O[P@](=O)(S)OC4)c(=O)[nH]1 [Compound 33a, 3′3′-RR-(A)(2′O,4′C-LNA-G)] | 18.36 | greater Tm shift than the natural ligand 2′3′-(G)(A) | comparable to or greater than that of the reference compound 2′3′-RR-(A)(A) | 29.6 | 11.9 | greater Tm shift than both 2′3′-RR-(A)(A) and 2′3′-(G)(A) | 30.2 |  |  |  |  |  |  |  |  |
| Nc1ncnc2c1ncn2[C@@H]1O[C@@H]2CO[P@](=O)(S)O[C@H]3[C@H]4OC[C@]3(CO[P@](=O)(S)O[C@@H]1[C@@H]2O)O[C@H]4n1cnc2c(N)ncnc21 [Compound 10d, dithio-(Sp,Sp)-cyclic-[A(2′,5′)p-2′O,4′-C-LNA-A(3′,5′)p]] | 4.1 |  |  | 5.0 | 3.2 |  | > 150 |  |  |  |  |  |  |  |  |
| Nc1ncnc2c1ncn2[C@@H]1O[C@@H]2CO[P@](=O)(S)O[C@H]3[C@H]4OC[C@]3(CO[P@@](=O)(S)O[C@@H]1[C@H]2F)O[C@H]4n1cnc2c(N)ncnc21 [Compound 37b, dithio-(RP,SP)-cyclic-[3′βF-A(2′,5′)p-2′O,4′C-LNA-A(3′,5′)p]] | 1.8 |  |  | 6.8 | 0.5 |  | > 150 |  |  |  |  |  |  |  |  |
| Nc1nc2c(ncn2[C@@H]2O[C@@]34CO[C@@H]2[C@@H]3O[P@@](=O)(S)OC[C@H]2O[C@@H](n3cnc5c(N)ncnc53)[C@H](O)[C@@H]2O[P@](=O)(S)OC4)c(=O)[nH]1 [Compound 33b, 2-amino-9-((2R,3R,3 aS,5S,7aR,9R,10R,10aS,12R,14aR)-9-(6-amino-9H-purin-9-yl)-10-hydroxy-5,12-dimercapto-5,12-dioxidohexahydro-2H,7H,14H-3,14a-(epoxymethano)difuro[3,2-d:3′,2′-j][1,3,7,9]tetraoxa[2,8]diphosphacyclododecin-2-yl)-1,9-dihydro-6H-purin-6-one] | 13.2 |  | comparable to or greater than that of the reference compound 2′3′-RR-(A)(A) | 19.3 | 9.3 | greater Tm shift than both 2′3′-RR-(A)(A) and 2′3′-(G)(A) | 38 |  |  |  |  |  |  |  |  |
| Nc1ncnc2c1ncn2[C@@H]1O[C@@]23CO[C@@H]1[C@@H]2O[P@@](=O)(S)OC[C@@]12CO[C@@H]([C@H](n4cnc5c(N)ncnc54)O1)[C@@H]2O[P@](=O)(S)OC3 [Compound 5b] | 11.3 |  | comparable to or greater than that of the reference compound 2′3′-RR-(A)(A) | 18.3 | 8.7 | greater Tm shift than both 2′3′-RR-(A)(A) and 2′3′-(G)(A) | 19.3 |  |  |  |  |  |  |  |  |
| Nc1nc2c(ncn2[C@@H]2O[C@@H]3CO[P@](=O)(S)O[C@H]4[C@H]5OC[C@]4(CO[P@@](=O)(S)O[C@H]3[C@H]2O)O[C@H]5n2cnc3c(N)ncnc32)c(=O)[nH]1 [Compound 45b, 2-amino-9-((2R,3R,3aS,5S,7aR,9R,10R,10aS,12R,14aR)-2-(6-amino-9H-purin-9-yl)-10-hydroxy-5,12-dimercapto-5,12-dioxidohexahydro-2H,7H,14H-3,14a-(epoxymethano)difuro[3,2-d:3′,2′-j][1,3,7,9]tetraoxa[2,8]diphosphacyclododecin-9-yl)-1,9-dihydro-6H-purin-6-one] | 9.4 |  |  | 14.7 | 7.4 |  | 60 |  |  |  |  |  |  |  |  |
| Nc1ncnc2c1ncn2[C@@H]1O[C@@H]2CO[P@](=O)(S)O[C@H]3[C@H]4OC[C@]3(CO[P@@](=O)(S)O[C@@H]1[C@@H]2F)O[C@H]4n1cnc2c(N)ncnc21 [Compound 27b, dithio-(Rp,Sp)-cyclic-[3′F-A(2′,5′)p-2′O,4′C-LNA-A(3′,5′)p]] | 8.2 |  |  | 13.2 | 7.1 |  | 81 |  |  |  |  |  |  |  |  |
| O=C(Nc1ncnc2c1ncn2[C@@H]1O[C@@]23CO[C@@H]1[C@@H]2O[P@](=O)(S)OC[C@@]12CO[C@@H]([C@H](n4cnc5c(NC(=O)c6ccccc6)ncnc54)O1)[C@@H]2O[P@](=O)(S)OC3)c1ccccc1 [Compound 4a] | 4.3 |  |  | 5.6 | 4.4 |  | 341 |  |  |  |  |  |  |  |  |
| Nc1ncnc2c1ncn2[C@@H]1O[C@@]23CO[C@@H]1[C@@H]2O[P@@](=O)(S)OC[C@@H]1C[C@@H](O[P@](=O)(S)OC3)[C@H](n2cnc3c(N)ncnc32)O1 [Compound 21b, dithio-(Rp,Sp)-cyclic-[3′H-A(2′,5′)p-2′O,4′C-LNA-A(3′,5′)p]] | 5.0 |  |  | 10.0 | 4.2 |  | 77.3 |  |  |  |  |  |  |  |  |
